# Laboratory results: article PMC3534213, “γ-Secretase Modulators: Can We Combine Potency with Safety?” (International Journal of Alzheimer's Disease, 2012)
# What was measured:
# [1] = set-up: method as in PMID 22468891; conditions: Phase III clinical trials; cited from earlier work
# [2] = cited from earlier work
# [3] = set-up: method as in earlier work; conditions: high-dose group, rats; cited from earlier work
# plasma Aβ42 = tested on: plasma Aβ42; set-up: method as in earlier work; conditions: human, 400 mg dose; cited from earlier work
# CSF Aβ42 [4] = tested on: CSF Aβ42; set-up: method as in PMID 22072214; conditions: dog, single dose of 80 mg/kg; cited from earlier work
# plaque load = tested on: plaque load; set-up: method as in PMID 21232036; conditions: chronic treatment of transgenic mice, exposure below concentrations required for Aβ42 reduction after a single dose; cited from earlier work
# [5] = Free fraction in brain (brain tissue binding, Fub); type: in vitro ADME
# [6] = Free fraction in plasma (plasma protein binding); type: in vitro ADME
# [7] = set-up: method as in PMID 22072214; conditions: repeated dosing in rat and dog; cited from earlier work
# brain Aβ42 = tested on: brain Aβ42; set-up: method as in PMID 22429469; conditions: 100 mg/kg oral dose; cited from earlier work
# γ-secretase = target: T1, γ-secretase (Homo sapiens, UniProt P49768); assay: Cellular Aβ42 lowering in SKNBE2 human neuroblastoma cells carrying hAPP 695 wild-type; type: cell-based; conditions: cellular assay, determined internally
# T1 construct: screening was carried out using SKNBE2 human neuroblastoma cells carrying the hAPP 695 wild-type; endogenous in cells; host or cells: SKNBE2 human neuroblastoma cells carrying hAPP 695 wild-type
# [8] = Limited tolerance study in rats; type: in vivo; conditions: two-week daily dose of 200 mg/kg
# [9] = Dog model combining PK/PD data with early observations of liver toxicity; type: in vivo
# Experimental: (§1) For the cellular in vitro activity of our own compounds, screening was carried out using SKNBE2 human neuroblastoma cells carrying the hAPP 695 wild-type as described in [15]. For a description of the mouse in vivo experiments, see references; for details on the dog in vivo experiments, see [17].
# (§2) Both compounds have been tested in advanced animal models, including repeated dosing in rat and dog. […] Based on these findings, further development was halted. Since then, the dog model combining PK/PD data with early observations of liver toxicity is routinely used in our discovery program to triage compounds [17]. Both JNJ-40418677 and JNJ-42601572 contain a considerable number of conjugated aromatic rings and are characterized by high lipophilicity and molecular weight. In recent years a number of publications have appeared relating such properties with a low probability of success in clinical development. Catchy phrases like “molecular obesity” and “escape from flatland” have been used to describe the issues associated with high molecular weight and number of (hetero) aromatic rings in molecules. Based on analysis of compound properties and their attrition or success in (pre)clinical development, guidelines have been formulated and proposed which can be applied during optimization efforts in medicinal chemistry programs to strive towards more drug-like compounds. The concept of ligand efficiency (LE) is now routinely applied in the drug discovery process. It is defined as the binding energy towards a biological target per (heavy = nonhydrogen) atom in a compound. Since most assays are not directly measuring binding energy, IC50 values are often used to make a relative comparison of the LE of compounds. By working towards a high LE, molecular weight can be kept in control while optimizing pharmacological activity. […]
# CSF Aβ42 [10] = assay: as above; type: in vivo; conditions: 20 mg/kg p.o.
# Experimental: as §1, §2
smiles,measurement,setting,value
"CC(C)[C@H](O)C(=O)N[C@@H](C)C(=O)N[C@@H]1C(=O)N(C)CCc2ccccc21 [Compound 1, semagacestat]",effect on cognition,[1],statistically significant decline in cognition
same,risk of skin cancer,[1],increased risk of skin cancer
"C[C@@H](C(=O)O)c1ccc(-c2ccccc2)c(F)c1 [Compound 2, tarenflurbil]",tolerability in clinical trials,[2]; high dosage,well tolerated
same,phase III clinical trial outcome,[2]; phase III,negative results
COc1cc(/C=C2\CCCN([C@@H](C)c3ccc(F)cc3)C2=O)ccc1-n1cnc(C)c1 [Compound 3],lenticular opacity,[3],lenticular opacity was observed
same,maximum reduction of plasma Aβ42 levels,plasma Aβ42,~ 50%
same,gene-expression profile in liver tissue,CSF Aβ42 [4],large changes in gene-expression profile
same,liver parameters,CSF Aβ42 [4],liver parameter changes
CC(C)C[C@H](C(=O)O)c1cc(-c2ccc(C(F)(F)F)cc2)cc(-c2ccc(C(F)(F)F)cc2)c1 [Compound 4],effect on plaque load,plaque load,preventive effect on plaque load
same,fraction unbound,[5],< 0.001
same,fraction unbound,[6],< 0.001
same,liver toxicity signs (bilirubin and ALT/AST increases),[7],early signs of liver toxicity were noted
COc1nc(C(=O)N[C@H]2COc3ccc(Cl)c(F)c32)ccc1-n1cnc(C)c1 [Compound 15],lowering of Aβ42 levels in Guinea pig brain,brain Aβ42,36%
COc1nc(-c2nc3n(n2)CCO[C@H]3c2ccccc2OC(F)(F)F)ccc1-n1cnc(C)c1 [Compound 16],IC50,γ-secretase,56 nM
same,fraction unbound,[5],0.039
same,signs of liver toxicity,[8],did not lead to overt signs of liver toxicity
same,concentration at 4 h,"[9]; CSF, 20 mg/kg oral, 4 h, read-out: CSF compound concentration",0.524 ± 0.062 µM
same,Cmax,"[9]; plasma, po, 20 mg/kg",24 ± 3 µM
same,bilirubin or ALT levels,CSF Aβ42 [10],no increases in bilirubin or ALT levels were observed
